25 compounds from patent publication US12049439B2 (OrsoBio, Inc., priority 2018, dated 2024) can be followed below.

Each structure is given as a SMILES string.

This test relates to PC-3 cells. As to the kind of experiment: PC-3 Oxygen Rate Consumption (OCR) Assay. The format is cell-based. Particulars: Homo sapiens, 0.05 h, medium with 2% FBS, OCR at 3-min post-injection normalized to % increase over DMSO-treated cells, concentration for half-maximal OCR increase, read-out: EC50-PC3-OCR-FBS-3min. The method in brief: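 PC-3 cells seeded a day before, equilibrated 1 h in XF medium with 10 mM glucose, 1 mM pyruvate, 2% FBS, non-CO2 at 37 °C. Compound injected after basal OCR reads; OCR at 3 min post-injection normalized as % increase over DMSO, EC50 = half-maximal increase; six replicates.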
The EC50 is the concentration that produces a half-maximal response. As for `NC(=O)c1ccc(S(=O)(=O)Nc2cc(C(F)(F)F)ccc2C(=O)NC23CC(C(F)(F)F)(C2)C3)cc1` [Example 53, 2-((4-carbamoylphenyl)sulfonamido)-4-(trifluoromethyl)-N-(3-(trifluoromethyl)bicyclo[1.1.1]pentan-1-yl)benzamide], the EC50 was determined as 46.1 µM.
The figure for `CS(=O)(=O)N1C2CCC1CN(S(=O)(=O)Nc1ccc(C(F)(F)F)cc1C(=O)NC13CCC(C#N)(CC1)CC3)C2` [Example 246, N-(4-cyanobicyclo[2.2.2]octan-1-yl)-2-(((1R,5S)-8-(methylsulfonyl)-3,8-diazabicyclo[3.2.1]octane)-3-sulfonamido)-5-(trifluoromethyl)benzamide] is 14.5 µM; for `CS(=O)(=O)Nc1cc(SC(F)(F)F)ccc1C(=O)NC12CCC(C#N)(CC1)CC2` [Example 202, N-(4-cyanobicyclo[2.2.2]octan-1-yl)-2-(methylsulfonamido)-4-((trifluoromethyl)thio)benzamide] it is 9.32 µM.
As for `CC(C)(C)S(=O)(=O)c1ccc(S(=O)(=O)Nc2cc(F)ccc2C(=O)NC23CC(C(F)(F)F)(C2)C3)cc1` [Example 152, 2-((4-(tert-butylsulfonyl)phenyl)sulfonamido)-4-fluoro-N-(3-(trifluoromethyl)bicyclo[1.1.1]pentan-1-yl)benzamide], the EC50 was 1.13 µM.
With `O=C(NC12CC(C(F)(F)F)(C1)C2)c1ccccc1NS(=O)(=O)C(F)(F)F` [Example 144, N-(3-(trifluoromethyl)bicyclo[1.1.1]pentan-1-yl)-2-((trifluoromethyl)sulfonamido)benzamide], the EC50 was found to be 18.6 µM.
With `N#Cc1ccc(NS(=O)(=O)N2CCC2)c(C(=O)NC23CCC(C#N)(CC2)CC3)c1` [Example 132, 2-(azetidine-1-sulfonamido)-5-cyano-N-(4-cyanobicyclo[2.2.2]octan-1-yl)benzamide], the EC50 is 50.9 µM.
As to `O=C(NC12CC(C(F)(F)F)(C1)C2)c1ccc(C(F)(F)F)cc1NS(=O)(=O)c1ccc(N2CCS(=O)(=O)CC2)cc1` [Example 106, 2-((4-(1,1-dioxidothiomorpholino)phenyl)sulfonamido)-4-(trifluoromethyl)-N-(3-(trifluoromethyl)bicyclo[1.1.1]pentan-1-yl)benzamide], the EC50 turned out to be 18.8 µM.
Take `O=C(NC12CC(C(F)(F)F)(C1)C2)c1ccc(C(F)(F)F)cc1NS(=O)(=O)c1ccc(N2CCCS2(=O)=O)cc1` [Example 29, 2-((4-(1,1-dioxidoisothiazolidin-2-yl)phenyl)sulfonamido)-4-(trifluoromethyl)-N-(3-(trifluoromethyl)bicyclo[1.1.1]pentan-1-yl)benzamide]: the EC50 was found to be 8.8 µM.
In the case of `CS(=O)(=O)Nc1ccc(S(F)(F)(F)(F)F)cc1C(=O)NC1CC2CCC(C1)O2` (stereo not shown) [Example 184, N-(8-oxabicyclo[3.2.1]octan-3-yl)-2-(methylsulfonamido)-5-(pentafluoro-λ^6-sulfanyl)benzamide], the EC50 is 48.1 µM.
With `O=C(NC12CC(C(F)(F)F)(C1)C2)c1ccc(C(F)(F)F)cc1NS(=O)(=O)c1cccnc1` [Example 59, 2-(pyridine-3-sulfonamido)-4-(trifluoromethyl)-N-(3-(trifluoromethyl)bicyclo[1.1.1]pentan-1-yl)benzamide], the EC50 stood at 1.84 µM.
In the case of `O=C(NC12CC(c3ccccc3)(C1)C2)c1ccc(C(F)(F)F)cc1NS(=O)(=O)c1ccc(S(=O)(=O)C(F)F)cc1` [Example 44, 2-((4-((difluoromethyl)sulfonyl)phenyl)sulfonamido)-N-(3-phenylbicyclo[1.1.1]pentan-1-yl)-4-(trifluoromethyl)benzamide], the EC50 was 1.16 µM.
The figure for `CS(=O)(=O)Nc1cc(F)ccc1C(=O)NC12C3C4C5C3C1C5C42` (stereo not shown) [Example 139, N-(cuban-1-yl)-4-fluoro-2-(methylsulfonamido)benzamide] is 23.7 µM; for `O=C(NC12CC(C(F)(F)F)(C1)C2)c1ccc(C(F)(F)F)cc1NS(=O)(=O)c1ccc(S(=O)(=O)C(F)F)cc1` [Example 34, 2-((4-((difluoromethyl)sulfonyl)phenyl)sulfonamido)-4-(trifluoromethyl)-N-(3-(trifluoromethyl)bicyclo[1.1.1]pentan-1-yl)benzamide] it is 2.71 µM.
With `CS(=O)(=O)Nc1ccc(C(F)(F)F)cc1C(=O)NC12CCC(C#N)(CC1)CC2` [Example 105, N-(4-cyanobicyclo[2.2.2]octan-1-yl)-2-(methylsulfonamido)-5-(trifluoromethyl)benzamide], the EC50 was found to be 22.9 µM.
The figure for `O=C(NC12CC(C(F)(F)F)(C1)C2)c1cc(C(F)(F)F)ccc1NS(=O)(=O)N1CCS(=O)(=O)CC1` [Example 193, 2-((1,1-dioxidothiomorpholine)-4-sulfonamido)-5-(trifluoromethyl)-N-(3-(trifluoromethyl)bicyclo[1.1.1]pentan-1-yl)benzamide] is 9.95 µM; for `N#CC12CCC(NC(=O)c3cc(C(F)(F)F)ccc3NS(=O)(=O)N3CCCC3)(CC1)CC2` [Example 130, N-(4-cyanobicyclo[2.2.2]octan-1-yl)-2-(pyrrolidine-1-sulfonamido)-5-(trifluoromethyl)benzamide] it is 4.68 µM.
As for `CN(C)S(=O)(=O)Nc1ccc(C(F)(F)F)cc1C(=O)NC12CCC(C#N)(CC1)CC2` [Example 190, N-(4-cyanobicyclo[2.2.2]octan-1-yl)-2-((N,N-dimethylsulfamoyl)amino)-5-(trifluoromethyl)benzamide], the EC50 is 4.15 µM.
Turning to `CC(C)S(=O)(=O)Nc1ccc(C(F)(F)F)cc1C(=O)NC12CC(C1)C2` [Example 71, N-(bicyclo[1.1.1]pentan-1-yl)-2-((1-methylethyl)sulfonamido)-5-(trifluoromethyl)benzamide], the EC50 amounted to 6.67 µM.
With `CS(=O)(=O)c1ccc(S(=O)(=O)Nc2cc(C(F)(F)F)ccc2C(=O)NC23CC(C2)C3)cc1` [Example 23, N-(bicyclo[1.1.1]pentan-1-yl)-2-((4-(methylsulfonyl)phenyl)sulfonamido)-4-(trifluoromethyl)benzamide], the EC50 is 12 µM.
For `CCP(=O)(CC)c1ccc(S(=O)(=O)Nc2cc(C(F)(F)F)ccc2C(=O)NC23CC4CC(CC(C#N)(C4)C2)C3)cc1` [Example 181], the EC50 turned out to be 114 µM.
The value for `CS(=O)(=O)Nc1ccc(C(F)(F)F)cc1C(=O)NC1CC2(CC(=O)C2)C1` [Example 195, 2-(methylsulfonamido)-N-(6-oxospiro[3.3]heptan-2-yl)-5-(trifluoromethyl)benzamide] was 67.5 µM.
For the compound `CCCCS(=O)(=O)Nc1ccc(C#N)cc1C(=O)NC12CCC(C#N)(CC1)CC2` [Example 129, 2-(butylsulfonamido)-5-cyano-N-(4-cyanobicyclo[2.2.2]octan-1-yl)benzamide], the EC50 was 24.3 µM.
On to `CS(=O)(=O)Nc1c(F)cccc1C(=O)NC12CC(C(F)(F)F)(C1)C2` [Example 136, 3-fluoro-2-(methylsulfonamido)-N-(3-(trifluoromethyl)bicyclo[1.1.1]pentan-1-yl)benzamide], for which the EC50 was not below 100 µM.
As for `CS(=O)(=O)c1cccc(S(=O)(=O)Nc2cc(F)ccc2C(=O)NC23CC(C(F)(F)F)(C2)C3)c1` [Example 22, 4-fluoro-2-((3-(methylsulfonyl)phenyl)sulfonamido)-N-(3-(trifluoromethyl)bicyclo[1.1.1]pentan-1-yl)benzamide], the EC50 is 9.97 µM.
For the compound `O=C(NC12CCC(C(F)(F)F)(CC1)CC2)c1cc(SC(F)(F)F)ccc1NS(=O)(=O)N1CCS(=O)(=O)CC1` [Example 237, 2-((1,1-dioxidothiomorpholine)-4-sulfonamido)-N-(4-(trifluoromethyl)bicyclo[2.2.2]octan-1-yl)-5-((trifluoromethyl)thio)benzamide], the EC50 was 7.73 µM.
